Data set [1] concerns the target Neurotensin receptor type 1 (Homo sapiens, UniProt P30989). In words: Displacement of [3H]UR-MK300 from human NTS1R expressed in human HT-29 cells incubated for 2 hrs by scintillation counting method. It counts as cell-based. In general terms: Loss of bound radioactivity is the signal in a displacement assay; it reports binding, not function.
Data set [2] is described as follows: Chemical stability of compound in PBS buffer at pH 7.4 at 100 uM incubated for 48 hrs by RP-HPLC analysis. Conditions: pH 7.4, 48 h. It counts as physicochemical.
The target in data set [3] is Neuropeptide Y receptor type 4 (Homo sapiens, UniProt P50391). In words: Displacement of [3H]UR-KK200 from human Y4R expressed in CHO cells incubated for 90 mins by microbeta scintillation counting method. It is filed as cell-based.
Neuropeptide Y receptor type 4, sequence (P50391 whole entry): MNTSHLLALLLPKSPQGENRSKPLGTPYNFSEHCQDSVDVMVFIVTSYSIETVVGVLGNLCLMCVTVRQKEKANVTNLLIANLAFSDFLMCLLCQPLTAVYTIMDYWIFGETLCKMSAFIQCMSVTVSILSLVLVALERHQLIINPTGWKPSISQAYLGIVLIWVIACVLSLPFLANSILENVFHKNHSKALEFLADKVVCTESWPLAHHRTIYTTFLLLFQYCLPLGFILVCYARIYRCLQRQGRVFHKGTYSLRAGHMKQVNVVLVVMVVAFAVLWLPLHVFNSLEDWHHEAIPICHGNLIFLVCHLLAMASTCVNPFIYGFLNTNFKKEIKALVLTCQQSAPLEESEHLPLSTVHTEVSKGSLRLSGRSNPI

Neurotensin receptor type 1, sequence (P30989 whole entry): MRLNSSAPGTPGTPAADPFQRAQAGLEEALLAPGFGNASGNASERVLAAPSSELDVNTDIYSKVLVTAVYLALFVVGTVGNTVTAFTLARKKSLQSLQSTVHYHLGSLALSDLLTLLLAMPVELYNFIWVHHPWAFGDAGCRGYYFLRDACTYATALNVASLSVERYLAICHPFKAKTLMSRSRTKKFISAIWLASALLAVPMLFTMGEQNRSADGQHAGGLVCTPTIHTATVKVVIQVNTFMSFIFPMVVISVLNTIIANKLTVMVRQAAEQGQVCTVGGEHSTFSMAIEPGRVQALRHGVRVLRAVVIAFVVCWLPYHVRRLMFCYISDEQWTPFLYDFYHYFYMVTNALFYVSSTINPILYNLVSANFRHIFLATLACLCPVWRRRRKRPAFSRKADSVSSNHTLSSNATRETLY

On to `CC(C)C[C@H](NC(=O)[C@@H](NC(=O)[C@H](Cc1ccc(O)cc1)NC(=O)[C@@H]1CCCN1C(=O)[C@H](CCCNC(=N)N)NC(=O)[C@@H](N)CCCNC(=N)NC(=O)NCCCCc1cn(CCCNC(=O)CCCCCN2/C(=C/C=C/C=C/C3=[N+](C)c4ccc5c(S(=O)(=O)[O-])cc(S(=O)(=O)O)cc5c4C3(C)C)C(C)(C)c3c2ccc2c(S(=O)(=O)O)cc(S(=O)(=O)O)cc32)nn1)C(C)(C)C)C(=O)O`, for which, in data set [1] (read-out: Ki), the Ki was 50 nM. In data set [2], the Stability entry is “Stable”.

Take `C#CCCCCNC(=O)NC(=N)NCCC[C@H](NC(=O)[C@H](CCCNC(=N)N)NC)C(=O)N1CCC[C@H]1C(=O)N[C@@H](Cc1ccc(O)cc1)C(=O)N[C@H](C(=O)N[C@@H](CC(C)C)C(=O)O)C(C)(C)C`: the Ki in data set [1] (read-out: Ki) is 9.6 nM; in data set [1] (read-out: pKi (converted)), 9.33 nM.

On to `CC(=O)N[C@@H](CCCNC(=N)NC(=O)NCCCCc1cn(CCCNC(=O)CCCCCN2/C(=C/C=C/C=C/C3=[N+](C)c4ccc5c(S(=O)(=O)[O-])cc(S(=O)(=O)O)cc5c4C3(C)C)C(C)(C)c3c2ccc2c(S(=O)(=O)O)cc(S(=O)(=O)O)cc32)nn1)C(=O)N[C@@H](Cc1ccc(O)cc1)C(=O)N[C@@H](CCCNC(=N)N)C(=O)N[C@@H](CC(C)C)C(=O)N[C@@H](CCCNC(=N)N)C(=O)N[C@@H](Cc1ccc(O)cc1)C(N)=O`, for which the Stability entry in data set [2] is “Stable”. The Ki in data set [3] was 33 nM.

For `C#CCCCCNC(=O)NC(=N)NCCC[C@H](NC(=O)[C@@H](N)CCCNC(=N)N)C(=O)N1CCC[C@H]1C(=O)N[C@@H](Cc1ccc(O)cc1)C(=O)N[C@H](C(=O)N[C@@H](CC(C)C)C(=O)O)C(C)(C)C`, the Ki in data set [1] (read-out: Ki) amounted to 9.4 nM.

As for `C#CCCCCNC(=O)NC(=N)NCCC[C@H](N)C(=O)N[C@@H](CCCNC(=N)N)C(=O)N1CCC[C@H]1C(=O)N[C@@H](Cc1ccc(O)cc1)C(=O)N[C@H](C(=O)N[C@@H](CC(C)C)C(=O)O)C(C)(C)C`, the Ki is 4.2 nM in data set [1] (read-out: Ki) and 4.07 nM in data set [1] (read-out: pKi (converted)).

The values above are taken from ChEMBL document CHEMBL4342486, “An Alkyne-functionalized Arginine for Solid-Phase Synthesis Enabling "Bioorthogonal" Peptide Conjugation” (ACS Med Chem Lett, 2020).
